Assay results published in patent US8513286B2, “Iminipyridine derivatives and their uses as microbiocides” (Syngenta Crop Protection LLC, priority 2007, dated 2013).

Assays:
Type in all cases: in vivo
[1] = system: Erysiphe graminis f.sp. tritici; test: Erysiphe graminis f.sp. tritici, wheat powdery mildew, preventative test on wheat leaf segments; conditions: Blumeria graminis, foliar, 168 h, application rate 200 ppm, assessed 7 days after inoculation, 0=no control, 100%=complete control, read-out: preventive fungicidal activity, percent efficacy relative to untreated infected control
Protocol: Erysiphe graminis f.sp. tritici: Wheat Powdery Mildew, Preventative Test Erysiphe graminis f.sp. tritici (Wheat powdery mildew): Wheat leaf segments are placed on agar in multiwell plates (24-well format) and sprayed with the formulated (2% Dimethylsulfoxid, 0,025% Tween 20) test solutions. After drying, the leaf disks are inoculated with spores of the fungus (50 conidia/mm2). After appropriate incubation, the preventive fungicidal activity of a compound is assessed 7 days after inoculation as disease damage on the leaf disks and calculated as percent efficacy relative to untreated infected control. (0=no control of Erysiphe graminis f.sp. tritici, 100%=complete control). In this test, compounds listed in Table P above show good activity.

[2] = system: Erysiphe graminis f.sp. hordei; test: Erysiphe graminis f.sp. hordei, powdery mildew of barley, curative test on barley leaf segments; conditions: Blumeria graminis, foliar, 168 h; application rate 200 ppm; barley leaf segments sprayed 24 h after inoculation; assessed 7 days after inoculation; 0=no control, 100%=complete control; read-out: curative fungicidal activity, percent efficacy relative to untreated infected control
Protocol: Erysiphe graminis f.sp. hordei: Powdery Mildew of Barley, Curative Test Erysiphe graminis f.sp. hordei (Barley powdery mildew): Barley leaf segments are placed on agar in multiwell plates (24-well format). The leaf disks are inoculated with spores of the fungus (120 conidia/mm2). After 24 h the leaf disks are sprayed with the formulated (2% Dimethylsulfoxid, 0,025% Tween 20) test solutions. After appropriate incubation, the curative fungicidal activity of a compound is assessed 7 days after inoculation as disease damage on the leaf disks and calculated as percent efficacy relative to untreated infected control (0=no control of Erysiphe graminis f.sp. hordei, 100%=complete control). In this test, compounds listed in Table P above show good activity.

[3] = system: Puccinia recondita; test: Puccinia recondita, brown rust of wheat, preventative test on wheat leaf segments; conditions: foliar, 192 h, application rate 200 ppm, assessed 8 days after inoculation, 0=no control, 100%=complete control, read-out: preventive fungicidal activity, percent efficacy relative to untreated infected control
Protocol: (§1) Puccinia recondite: Brown Rust of Wheat, Preventative Test Puccinia recondita (Brown rust): Wheat leaf segments are placed on agar in multiwell plates (24-well format) and sprayed with the formulated (2% Dimethylsulfoxid, 0,025% Tween 20) test solutions. After drying, the leaf disks are inoculated with a spore suspension of the fungus (45'000 conidia/ml). After appropriate incubation, the preventive fungicidal activity of a compound is assessed 8 days after inoculation as disease damage on the leaf disks and calculated as percent efficacy relative to untreated infected control (0=no control of Puccinia recondita, 100%=complete control). In this test, compounds listed in Table P above show good activity.

[4] = system: Pyrenophora teres; test: Pyrenophora teres, net blotch of barley, preventative test on barley leaf segments; conditions: foliar, 96 h, application rate 200 ppm, assessed 4 days after inoculation, 0=no control, 100%=complete control, read-out: preventive fungicidal activity, percent efficacy relative to untreated infected control
Protocol: as §1, with “Pyrenophora teres: Net Blotch” for “Puccinia recondite: Brown Rust”, “Barley,” for “Wheat,”, “Method Description Pyrenophora teres (Net blotch): Barley” for “Puccinia recondita (Brown rust): Wheat”, “(25'000” for “(45'000”, “4” for “8”, “Pyrenophora teres,” for “Puccinia recondita,”

[5] = system: Puccinia recondita; test: Puccinia recondita, brown rust of wheat, curative test on wheat leaf segments; conditions: foliar, 192 h, application rate 200 ppm, wheat leaf segments treated one day after inoculation, assessed 8 days after inoculation, 0=no control, 100%=complete control, read-out: curative fungicidal activity, percent efficacy relative to untreated infected control
[6] = system: Botrytis cinerea; test: Botrytis cinerea, gray mould, preventative test on bean leaf disks; conditions: application rate 200 ppm, assessed 3 days after inoculation, 0=no control, 100%=complete control
Protocol: (§2) Botrytis cinerea: Gray Mould, Preventative Test Botrytis cinerea (Gray mould): Bean leaf disks are placed on agar in multiwell plates (24-well format) and sprayed with the formulated (2% Dimethylsulfoxid, 0,025% Tween 20) test solutions. After drying, the leaf disks are inoculated with a spore suspension of the fungus (60′000 conidia/ml). After appropriate incubation, the preventive fungicidal activity of a compound is assessed 3 days after inoculation as disease damage on the leaf disks and calculated as percent efficacy relative to untreated infected control. (0=no control of Botrytis cinerea, 100%=complete control). In this test, compounds listed in Table P above show good activity.

[7] = system: Plasmopara viticola; test: Plasmopara viticola, downy mildew of grapevine, preventative test on grape vine leaf disks; conditions: application rate 200 ppm, assessed 6 days after inoculation, 0=no control, 100%=complete control
Protocol: as §2, with “Plasmopara viticola: Downy Mildew of Grapevine,” for “Botrytis cinerea: Gray Mould,”, “Plasmopara viticola (downy mildew of grapevine): Grape vine” for “Botrytis cinerea (Gray mould): Bean”, “(80′000” for “(60′000”, “6” for “3”, “Plasmopara viticola,” for “Botrytis cinerea,”

## CCN(C)/C=N/c1cc(-c2ccc(F)cc2)c(Oc2ccc(Cl)c(C(F)(F)F)c2)nc1C [P.30]
[1]
  pest or weed control at 200 ppm: ≥ 50%

## Cc1cc(/N=C/N(C)C)cnc1Oc1cccc(C(C)(C)C)c1 [P.14]
[2]
  pest or weed control at 200 ppm: ≥ 50%

## CCN(C)/C=N/c1ccc(Oc2ccc(Cl)c(C(F)(F)F)c2)nc1C [P.07]
[3]
  pest or weed control at 200 ppm: ≥ 50%
[1]
  pest or weed control at 200 ppm: ≥ 50%
[2]
  pest or weed control at 200 ppm: ≥ 50%

## CCN(C)/C=N/c1cc(OC)c(Oc2ccc(Cl)c(C(F)(F)F)c2)nc1Cl [P.63]
[1]
  pest or weed control at 200 ppm: ≥ 50%

## CN(C)/C=N/c1ccc(Oc2ccc(Cl)cc2)nc1 [P.22]
[1]
  pest or weed control at 200 ppm: ≥ 50%

## CCN/C=N/c1cnc(Oc2ccc(Cl)c(C(F)(F)F)c2)c(C)c1 [P.08]
[4]
  pest or weed control at 200 ppm: ≥ 50%
[2]
  pest or weed control at 200 ppm: ≥ 50%

## CCN(C)/C=N/c1ccc(Oc2ccc(Cl)cc2Cl)nc1 [P.01]
[2]
  pest or weed control at 200 ppm: ≥ 50%

## CCN(C)/C=N/c1cc(Br)c(Oc2cccc3ccccc23)nc1C [P.76]
[5]
  pest or weed control at 200 ppm: ≥ 50%
[3]
  pest or weed control at 200 ppm: ≥ 50%
[1]
  pest or weed control at 200 ppm: ≥ 50%

## CCN(C)/C=N/c1cc(Br)c(OCCCC(C)C)nc1Br [P.69]
[5]
  pest or weed control at 200 ppm: ≥ 50%
[4]
  pest or weed control at 200 ppm: ≥ 50%
[1]
  pest or weed control at 200 ppm: ≥ 50%

## CCN(C)/C=N/c1cc(Br)c(OCCCC(C)C)nc1C [P.26]
[5]
  pest or weed control at 200 ppm: ≥ 50%
[3]
  pest or weed control at 200 ppm: ≥ 50%
[1]
  pest or weed control at 200 ppm: ≥ 50%

## CCN(C)/C=N/c1cc(Br)c(OC2CCc3ccccc3C2)nc1C (stereo not drawn) [P.62]
[5]
  pest or weed control at 200 ppm: ≥ 50%
[4]
  pest or weed control at 200 ppm: ≥ 50%
[3]
  pest or weed control at 200 ppm: ≥ 50%
[1]
  pest or weed control at 200 ppm: ≥ 50%

## CCN(C)/C=N/c1cc(Br)c(Oc2ccc(Cl)c(C(F)(F)F)c2)nc1C [P.29]
[6]
  preventive fungicidal activity, percent efficacy relative to untreated infected control: at least 50%
[5]
  pest or weed control at 200 ppm: ≥ 50%
[3]
  pest or weed control at 200 ppm: ≥ 50%
[1]
  pest or weed control at 200 ppm: ≥ 50%

## CCN(C)/C=N/c1cc(C#N)c(Oc2cc(F)cc(F)c2)nc1C [P.41]
[5]
  pest or weed control at 200 ppm: ≥ 50%

## CCN(C)/C=N/c1cnc(Oc2cccc(C(F)(F)F)c2)c(Br)c1C [P.51]
[3]
  pest or weed control at 200 ppm: ≥ 50%

## Cc1cc(Oc2ccc(Cl)c(C(F)(F)F)c2)ncc1/N=C/N(C)C [P.06]
[2]
  pest or weed control at 200 ppm: ≥ 50%

## CCN(C)/C=N/c1cnc(Oc2ccc(Cl)c(C(F)(F)F)c2)cc1C [P.11]
[3]
  pest or weed control at 200 ppm: ≥ 50%
[2]
  pest or weed control at 200 ppm: ≥ 50%

## CCN(C)/C=N/c1ccc(OCCCC(C)C)nc1OC [P.58]
[5]
  pest or weed control at 200 ppm: ≥ 50%
[3]
  pest or weed control at 200 ppm: ≥ 50%

## CCN(C)/C=N/c1cc(Br)c(Oc2cc(Cl)c3ncc(Br)cc3c2)nc1C [P.79]
[3]
  pest or weed control at 200 ppm: ≥ 50%

## C#CC(C)N(C)/C=N/c1cnc(Oc2ccc(Cl)c(C(F)(F)F)c2)c(C)c1 (stereo not drawn) [P.10]
[7]
  preventive fungicidal activity, percent efficacy relative to untreated infected control: at least 50%

## CN(C)/C=N/c1ccc(Oc2ccc(Cl)cc2Cl)nc1 [P.03]
[2]
  pest or weed control at 200 ppm: ≥ 50%

## CCN(C)/C=N/c1cc(C#C[Si](C)(C)C)c(Oc2ccc(Cl)c(C(F)(F)F)c2)nc1C [P.31]
[5]
  pest or weed control at 200 ppm: ≥ 50%
[3]
  pest or weed control at 200 ppm: ≥ 50%

## CCN(C)/C=N/c1cc(Br)c(OCCCC(C)C)nc1OC [P.61]
[5]
  pest or weed control at 200 ppm: ≥ 50%
[3]
  pest or weed control at 200 ppm: ≥ 50%
[1]
  pest or weed control at 200 ppm: ≥ 50%

## Cc1nc(OCCCC(C)C)c(Br)cc1NC(=S)N(C)C(C)C [P.35]
[5]
  pest or weed control at 200 ppm: ≥ 50%
[3]
  pest or weed control at 200 ppm: ≥ 50%
[1]
  pest or weed control at 200 ppm: ≥ 50%

## CN(C)/C=N/c1ccc(Oc2ncc(C(F)(F)F)cc2Cl)nc1 [P.15]
[2]
  pest or weed control at 200 ppm: ≥ 50%

## CCN(C)/C=N/c1cc(Br)c(Oc2ccc3ncc(Br)cc3c2)nc1C [P.78]
[1]
  pest or weed control at 200 ppm: ≥ 50%

## CCN(C)/C=N/c1ccc(OCCCC(C)C)nc1C [P.28]
[5]
  pest or weed control at 200 ppm: ≥ 50%
[3]
  pest or weed control at 200 ppm: ≥ 50%
[1]
  pest or weed control at 200 ppm: ≥ 50%

## Cc1cc(/N=C/N(C)C)cnc1Oc1ccc(Cl)c(C(F)(F)F)c1 [P.09]
[4]
  pest or weed control at 200 ppm: ≥ 50%
[1]
  pest or weed control at 200 ppm: ≥ 50%

## CCN(C)/C=N/c1cc(Cl)c(OCCCC(C)C)nc1C#N [P.81]
[5]
  pest or weed control at 200 ppm: ≥ 50%

## CCN(C)/C=N/c1cc(Cl)c(OCCCC(C)C)nc1Br [P.64]
[5]
  pest or weed control at 200 ppm: ≥ 50%
[4]
  pest or weed control at 200 ppm: ≥ 50%
[3]
  pest or weed control at 200 ppm: ≥ 50%
[1]
  pest or weed control at 200 ppm: ≥ 50%

## CCN(C)/C=N/c1cc(Cl)c(OCCCC(C)C)nc1C [P.46]
[4]
  pest or weed control at 200 ppm: ≥ 50%

## CCN(C)/C=N/c1cnc(Oc2cccc(C(F)(F)F)c2)cc1C [P.36]
[5]
  pest or weed control at 200 ppm: ≥ 50%

## COc1ccc(Oc2ccc(/N=C/N(C)C)cn2)cc1 [P.21]
[1]
  pest or weed control at 200 ppm: ≥ 50%

## Cc1cc(/N=C/N(C)c2ccccn2)cnc1Oc1ccc(Cl)c(C(F)(F)F)c1 [P.16]
[2]
  pest or weed control at 200 ppm: ≥ 50%

## CCN(C)/C=N/c1cc(OC)c(Oc2ccc(Cl)c(C(F)(F)F)c2)nc1Br [P.68]
[1]
  pest or weed control at 200 ppm: ≥ 50%

## CCN(C)/C=N/c1cc(OC)c(OCCCC(C)C)nc1Cl [P.73]
[5]
  pest or weed control at 200 ppm: ≥ 50%
[4]
  pest or weed control at 200 ppm: ≥ 50%
[3]
  pest or weed control at 200 ppm: ≥ 50%
[1]
  pest or weed control at 200 ppm: ≥ 50%

## C#CC(C)N(C)/C=N/c1ccc(Oc2ccc(Cl)cc2Cl)nc1 (stereo not drawn) [P.04]
[2]
  pest or weed control at 200 ppm: ≥ 50%

## CC(C)c1cc(Oc2ccc(Cl)c(Cl)c2)nc(C(C)C)c1/N=C/N(C)C [P.05]
[4]
  pest or weed control at 200 ppm: ≥ 50%

## CCN(C)/C=N/c1cc(Br)c(Oc2ccc3ccccc3c2)nc1C [P.77]
[5]
  pest or weed control at 200 ppm: ≥ 50%
[3]
  pest or weed control at 200 ppm: ≥ 50%
[1]
  pest or weed control at 200 ppm: ≥ 50%

## CCN(C)/C=N/c1cc(OC)c(OCCCC(C)C)nc1Br [P.70]
[5]
  pest or weed control at 200 ppm: ≥ 50%
[3]
  pest or weed control at 200 ppm: ≥ 50%

## CCN(C)/C=N/c1cnc(Oc2cccc(C(C)(C)C)c2)c(C)c1 [P.17]
[2]
  pest or weed control at 200 ppm: ≥ 50%

## CCN(C)/C=N/c1cc(Br)c(OC2CCc3cc(OC)ccc3C2)nc1C (stereo not drawn) [P.82]
[5]
  pest or weed control at 200 ppm: ≥ 50%
[3]
  pest or weed control at 200 ppm: ≥ 50%
[1]
  pest or weed control at 200 ppm: ≥ 50%

## CCN(C)/C=N/c1cc(Cl)c(OCCCC(C)C)nc1OC [P.59]
[5]
  pest or weed control at 200 ppm: ≥ 50%
[3]
  pest or weed control at 200 ppm: ≥ 50%
[1]
  pest or weed control at 200 ppm: ≥ 50%

## CCN(C)/C=N/c1cnc(Oc2ccc(Cl)c(C(F)(F)F)c2)c(C)c1 [P.19]
[2]
  pest or weed control at 200 ppm: ≥ 50%
